# Legend:
# Assay type in all cases: in vivo
# [1] = tested on: ryegrass, Italian (Italian ryegrass, Lolium multiflorum); assay: Test A preemergence
# Procedure, shortened: (§1)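 Ratings of 0 (no effect) to 100 (complete control) come from visual comparison with untreated controls roughly 10 d after treatment. Test chemicals, formulated in a non-phytotoxic solvent mixture with surfactant, were applied either as a preemergence directed soil spray on seeded soil or postemergence to one- to two-leaf plants 2 to 10 cm tall.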
# [2] = tested on: barnyardgrass (Echinochloa crus-galli); assay: Test A preemergence
# Procedure, shortened: as §1
# [3] = tested on: ragweed (common ragweed, Ambrosia elatior); assay: Test A preemergence
# Procedure, shortened: as §1
# [4] = tested on: giant foxtail (Setaria faberii); assay: Test A preemergence
# Procedure, shortened: as §1
# [5] = tested on: pigweed (Amaranthus retroflexus); assay: Test A preemergence
# [6] = tested on: Kochia (Kochia scoparia); assay: Test A preemergence
# Procedure, shortened: as §1
# [7] = tested on: sedge, umbrella (small-flower umbrella sedge, Cyperus difformis); assay: Test B flooded paddy test; details: Flood, 250 g ai/ha; 0 to 100 scale where 0 is no effect and 100 is complete control; 13 to 15 d
# Procedure, shortened: (§2)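 Compound goes directly into floodwater once pots are flooded 3 cm above soil, targeting plants at two leaves; the water depth is then held for the test duration. Plants sit 13–15 d in a greenhouse and are rated visually, 100 denoting complete control.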
# [8] = tested on: rice (Oryra sativa); assay: Test B flooded paddy test; details: Flood, 250 g ai/ha; 0 to 100 scale where 0 is no effect and 100 is complete control; 13 to 15 d
# Procedure, shortened: as §2
# [9] = tested on: barnyardgrass (Echinochloa crus-galli); assay: Test B flooded paddy test; details: Flood, 250 g ai/ha; 0 to 100 scale where 0 is no effect and 100 is complete control; 13 to 15 d
# Procedure, shortened: as §2
# [10] = tested on: ducksalad (Heteranthera limosa); assay: Test B flooded paddy test; details: Flood, 250 g ai/ha; 0 to 100 scale where 0 is no effect and 100 is complete control; 13 to 15 d
# Procedure, shortened: as §2
# [11] = tested on: ryegrass, Italian (Italian ryegrass, Lolium multiflorum); assay: Test A postemergence; details: postemergence, 0 to 100 scale (0 no effect, 100 complete control)
# Procedure, shortened: as §1
# [12] = tested on: Galium (catchweed bedstraw, Galium aparine); assay: Test A postemergence; details: postemergence, 0 to 100 scale (0 no effect, 100 complete control)
# Procedure, shortened: as §1
# [13] = tested on: barnyardgrass (Echinochloa crus-galli); assay: Test A postemergence; details: postemergence, 0 to 100 scale (0 no effect, 100 complete control)
# Procedure, shortened: as §1
# [14] = tested on: ragweed (common ragweed, Ambrosia elatior); assay: Test A postemergence; details: postemergence, 0 to 100 scale (0 no effect, 100 complete control)
# Procedure, shortened: as §1
# [15] = tested on: blackgrass (Alopecurus myosuroides); assay: Test A postemergence; details: postemergence, 0 to 100 scale (0 no effect, 100 complete control)
# Procedure, shortened: as §1
# [16] = tested on: wheat (Triticum aestivum); assay: Test A postemergence; details: postemergence, 0 to 100 scale (0 no effect, 100 complete control)
# Procedure, shortened: as §1
# [17] = tested on: giant foxtail (Setaria faberii); assay: Test A postemergence; details: postemergence, 0 to 100 scale (0 no effect, 100 complete control)
# Procedure, shortened: as §1
# [18] = tested on: pigweed (Amaranthus retroflexus); assay: Test A postemergence; details: postemergence, 0 to 100 scale (0 no effect, 100 complete control)
# Procedure, shortened: as §1
# [19] = tested on: Kochia (Kochia scoparia); assay: Test A postemergence; details: postemergence, 0 to 100 scale (0 no effect, 100 complete control)
# Procedure, shortened: as §1
# [20] = tested on: corn (Zea mays); assay: Test A postemergence; details: postemergence, 0 to 100 scale (0 no effect, 100 complete control)
# Procedure, shortened: as §1
# [21] = 125 g ai/ha, Preemergence, visual injury after approximately 10 d, 0 to 100 scale where 0 is no effect and 100 is complete control
# [22] = 500 g ai/ha, preemergence, 0 to 100 scale, 0 = no effect, 100 = complete control
# [23] = 125 g ai/ha, visual rating after approx. 10 d
# [24] = 500 g ai/ha, visual injury, approx. 10 d
smiles,measurement,setting,value
O=C1NCC(c2csc(Br)c2)C1C(=O)Nc1cccc(F)c1F (racemic) [Compound 649],"Plant response rating, Ryegrass, Italian",[1]; [21],30
same,"Plant response rating, Ryegrass, Italian",[1]; [22],70
same,"Plant response rating, Barnyardgrass",[2]; [21],80
same,"Plant response rating, Barnyardgrass",[2]; [22],90
same,"Plant response rating, Ragweed",[3]; [21],20
same,"Plant response rating, Ragweed",[3]; [22],70
same,"Plant response rating, Foxtail, Giant",[4]; [21],50
same,"Plant response rating, Foxtail, Giant",[4]; [22],70
same,"Plant response rating, Pigweed",[5]; [21],50
same,"Plant response rating, Pigweed",[5]; [22],60
same,"Plant response rating, Kochia",[6]; [21],60
same,"Plant response rating, Kochia",[6]; [22],70
same,"Plant response rating, Sedge, Umbrella",[7],0
same,"Plant response rating, Rice",[8],0
same,"Plant response rating, Barnyardgrass",[9],60
same,"Plant response rating, Ducksalad",[10],100
same,"Plant response rating, Ryegrass, Italian",[11]; [23],30
same,"Plant response rating, Ryegrass, Italian",[11]; [24],40
same,"Plant response rating, Galium",[12]; [23],50
same,"Plant response rating, Galium",[12]; [24],70
same,"Plant response rating, Barnyardgrass",[13]; [23],60
same,"Plant response rating, Barnyardgrass",[13]; [24],70
same,"Plant response rating, Ragweed",[14]; [23],20
same,"Plant response rating, Ragweed",[14]; [24],60
same,"Plant response rating, Blackgrass",[15]; [23],20
same,"Plant response rating, Blackgrass",[15]; [24],60
same,"Plant response rating, Wheat",[16]; [23],0
same,"Plant response rating, Wheat",[16]; [24],0
same,"Plant response rating, Foxtail, Giant",[17]; [23],30
same,"Plant response rating, Foxtail, Giant",[17]; [24],60
same,"Plant response rating, Pigweed",[18]; [23],0
same,"Plant response rating, Pigweed",[18]; [24],30
same,"Plant response rating, Kochia",[19]; [23],30
same,"Plant response rating, Kochia",[19]; [24],60
same,"Plant response rating, Corn",[20]; [23],0
same,"Plant response rating, Corn",[20]; [24],0
Cc1ccc(C2CNC(=O)C2C(=O)Nc2ccccc2F)cc1C(F)(F)F (racemic) [Compound 654],"Plant response rating, Ryegrass, Italian",[1]; [21],40
same,"Plant response rating, Ryegrass, Italian",[1]; [22],80
same,"Plant response rating, Barnyardgrass",[2]; [21],90
same,"Plant response rating, Barnyardgrass",[2]; [22],90
same,"Plant response rating, Ragweed",[3]; [21],0
same,"Plant response rating, Ragweed",[3]; [22],30
same,"Plant response rating, Foxtail, Giant",[4]; [21],90
same,"Plant response rating, Foxtail, Giant",[4]; [22],90
same,"Plant response rating, Pigweed",[5]; [21],40
same,"Plant response rating, Pigweed",[5]; [22],70
same,"Plant response rating, Kochia",[6]; [21],0
same,"Plant response rating, Kochia",[6]; [22],40
same,"Plant response rating, Sedge, Umbrella",[7],0
same,"Plant response rating, Rice",[8],0
same,"Plant response rating, Barnyardgrass",[9],35
same,"Plant response rating, Ducksalad",[10],90
same,"Plant response rating, Ryegrass, Italian",[11]; [23],30
same,"Plant response rating, Ryegrass, Italian",[11]; [24],60
same,"Plant response rating, Galium",[12]; [23],40
same,"Plant response rating, Galium",[12]; [24],60
same,"Plant response rating, Barnyardgrass",[13]; [23],90
same,"Plant response rating, Barnyardgrass",[13]; [24],90
same,"Plant response rating, Ragweed",[14]; [23],0
same,"Plant response rating, Ragweed",[14]; [24],20
same,"Plant response rating, Blackgrass",[15]; [23],30
same,"Plant response rating, Blackgrass",[15]; [24],50
same,"Plant response rating, Wheat",[16]; [23],0
same,"Plant response rating, Wheat",[16]; [24],40
same,"Plant response rating, Foxtail, Giant",[17]; [23],70
same,"Plant response rating, Foxtail, Giant",[17]; [24],90
same,"Plant response rating, Pigweed",[18]; [23],0
same,"Plant response rating, Pigweed",[18]; [24],20
same,"Plant response rating, Kochia",[19]; [23],20
same,"Plant response rating, Kochia",[19]; [24],50
same,"Plant response rating, Corn",[20]; [23],20
same,"Plant response rating, Corn",[20]; [24],70
Cc1ccc(C2CNC(=O)C2C(=O)Nc2ccc(F)cc2F)cc1C(F)(F)F (racemic) [Compound 655],"Plant response rating, Ryegrass, Italian",[1]; [21],40
same,"Plant response rating, Ryegrass, Italian",[1]; [22],60
same,"Plant response rating, Barnyardgrass",[2]; [21],90
same,"Plant response rating, Barnyardgrass",[2]; [22],90
same,"Plant response rating, Ragweed",[3]; [21],0
same,"Plant response rating, Ragweed",[3]; [22],30
same,"Plant response rating, Foxtail, Giant",[4]; [21],90
same,"Plant response rating, Foxtail, Giant",[4]; [22],90
same,"Plant response rating, Pigweed",[5]; [21],50
same,"Plant response rating, Pigweed",[5]; [22],60
same,"Plant response rating, Kochia",[6]; [21],30
same,"Plant response rating, Kochia",[6]; [22],40
same,"Plant response rating, Sedge, Umbrella",[7],0
same,"Plant response rating, Rice",[8],30
same,"Plant response rating, Barnyardgrass",[9],20
same,"Plant response rating, Ducksalad",[10],100
same,"Plant response rating, Ryegrass, Italian",[11]; [23],0
same,"Plant response rating, Ryegrass, Italian",[11]; [24],30
same,"Plant response rating, Galium",[12]; [23],30
same,"Plant response rating, Galium",[12]; [24],50
same,"Plant response rating, Barnyardgrass",[13]; [23],70
same,"Plant response rating, Barnyardgrass",[13]; [24],90
same,"Plant response rating, Ragweed",[14]; [23],0
same,"Plant response rating, Ragweed",[14]; [24],0
same,"Plant response rating, Blackgrass",[15]; [23],20
same,"Plant response rating, Blackgrass",[15]; [24],30
same,"Plant response rating, Wheat",[16]; [23],0
same,"Plant response rating, Wheat",[16]; [24],10
same,"Plant response rating, Foxtail, Giant",[17]; [23],40
same,"Plant response rating, Foxtail, Giant",[17]; [24],60
same,"Plant response rating, Pigweed",[18]; [23],0
same,"Plant response rating, Pigweed",[18]; [24],0
same,"Plant response rating, Kochia",[19]; [23],30
same,"Plant response rating, Kochia",[19]; [24],40
same,"Plant response rating, Corn",[20]; [23],0
same,"Plant response rating, Corn",[20]; [24],30
